Measurements as given in ChEMBL document CHEMBL1148033, “Four new C16 1,2-dioxene-polyketides from the sponge Plakortis aff. simplex” (J Nat Prod, 1993).

Test system: P388
Assay: Cytotoxicity against mouse P388 cells
Assay type: functional, cell-based

Question: With `CCC/C=C/C=C/CCC[C@]1(OC)C=C[C@@H](CC(=O)OC)OO1` as the compound, how does the IC50 read?
Answer: < 0.1 µg/mL

Question: How did the IC50 turn out when `CCCC1C=CC(CCC[C@]2(OC)C=C[C@@H](CC(=O)OC)OO2)OO1` (some centres not stated) was run?
Answer: < 0.1 µg/mL
